Results from US11752169B2, “Treatment of pain with polysulfated polysaccharides” (PARADIGM BIOPHARMACEUTICALS LTD., priority 2018, dated 2023).
“Also recorded” adds a separate entry of the source.

Tests used:
NGF [1] = assay: human NGF ELISA of culture supernatants of osteocyte-like cultures; type: cell-based; conditions: KOA or NOF osteocyte-like cultures, PPS 1, 5 or 50 μg/mL for 72 h vs untreated
From the text: In order to maximise the clinical relevance of the findings from this study, the effects of PPS were to be tested on osteocyte-like cultures derived by differentiation in vitro for a period of 28 days from cells isolated from the subchondral bone of the proximal tibia of three patients with advanced knee OA who underwent total knee arthroplasty (TKA) surgery (KOA: Group 1). As a comparator group, cells isolated from the proximal femur of three patients who underwent total hip arthroplasty (THA) for neck of femur fracture (NOF: Group 2), were similarly differentiated and tested. The gender of all donors was female, and group were age matched, with the mean age of KOA being 77.0±8.5 years and that of the NOF group being 77.7±5.5 years (p=0.91).
Cryopreserved cells from each donor (all at passage 0 or 1) were thawed and cultured for 10d in T75 cm^2 tissue culture flasks. Once confluent, cells were removed by collagenase/dispase digestion, washed by centrifugation, counted and adjusted to 5×10^5 cells/mL. Cells were then seeded into either 12-well tissue culture trays or into 8-well chamber slides, at 1×10^5 and 2×10^4 cells/well, respectively. […]

[2] = volunteers injected subcutaneously with PPS; cited from earlier work
NGF [3] = assay: NGF immunostaining / confocal microscopy of osteocytes freshly isolated from human KOA bone; type: cell-based; conditions: osteocyte-enriched fractions of KOA bone digests, 24 h, qualitative (FIG. 22)
Protocol: FIG. 22. NGF expression in isolated human osteocytes. Osteocyte-enriched fractions of sequential human trabecular bone digests were cultured for 24 h either untreated (A), treated with rhTNFα (B), PPS (0.5 μg/mL) (C) or a combination of both (D), and then examined by confocal microscopy for NGF immunoreactivity. Control cells were also immunostained using an isotype-matched negative control primary antibody (E). Images are representative of data obtained from two individual donors. Scale bars in each image represent 100 μm.
(§1) Cell seeded in 8-well chamber slides and differentiated for 28 days or freshly digested from bone were either untreated or treated with rhTNFα (1 ng/mL), PPS (50 μg/mL; ‘PPS50’) or PPS50+rhTNFα. Following differentiation, medium was removed and all wells rinsed with PBS (pH 7.4, Gibco) a total of three times. Cells were then fixed with 100 μL of Histochoice (Sigma-Aldrich) tissue fixative for 1 hour at room temperature. After fixation, wells were rinsed twice with distilled H2O and stored at 4° C. until staining. Cells were blocked with 50 μL of blocking buffer (5% v/v normal rabbit serum in 1×PBS) for 20 minutes at room temperature in a humid chamber. Cells were then rinsed with wash buffer (0.1% v/v normal rabbit serum in PBS) three times. […]

MMP13 = MMP13 immunostaining / confocal microscopy of KOA osteocyte-like cultures; type: cell-based, human; conditions: KOA2 cells, rhTNFα + PPS 50 μg/mL (FIG. 21)
Protocol: FIG. 21. The effect of PPS treatment on basal and TNFα-induced MMP13 expression in human KOA osteocyte-like cultures. Confocal microscopy imaging of immunostaining of KOA2 cells untreated stained with isotype control primary antibody or mouse anti-human anti-MMP13 antibody (top row), or treated with rhTNFα alone or rhTNFα+PPS (50 μg/mL) and stained for MMP13 (green staining). All nuclei are stained with DAPI (blue). A) Isotype IgG control; B) Untreated; anti-MMP13; C) rhTNF-α-treated; anti-MMP13; and D) rhTNFa+PPS50; anti-MMP13.
as §1

## Sodium Pentosan Polysulfate [PPS]
NGF [1]
  secreted levels of mature NGF protein (ELISA): increased
[2]
  plasma concentrations of PPS: 1000 to 3000 ng/mL
NGF [3]; PPS 0.5 μg/mL + rhTNFα
  NGF expression (immunostaining), combination of rhTNF-α and PPS: downregulated; also recorded: qualitatively less staining
NGF [3]; PPS 0.5 μg/mL
  NGF expression (immunostaining), PPS alone vs control: qualitatively greater
MMP13
  inhibition of rhTNFα-induced MMP13 at the protein level (immunostaining): confirmed
